The values that follow come from patent US9511058B2, “Methods for using carboxamide, sulfonamide and amine compounds” (Rigel Pharmaceuticals, Inc., priority 2010, dated 2016).

The target in the first experiment is AMPK. In words: AMPK activation, enzyme-linked immunosorbent assay. In kind it is biochemical. As to conditions: compounds of Table 1 (Table 6).
Turning to `O=S(=O)(NC1CCNCC1)c1ccc(OC2CCN(c3ccc(C(F)(F)F)cc3)CC2)nc1` [1-55, N-(piperidin-4-yl)-6-(1-(4-(trifluoromethyl)phenyl)piperidin-4-yloxy)pyridine-3-sulfonamide], the concentration giving a half-maximal response (EC50) (usually the concentration at which the effect is half-maximal) was in the range of 1 to 5 µM.

Compound `CN(C(=O)c1cc2cc(OC3CCN(c4ccc(C(F)(F)F)cc4)CC3)ccc2o1)C1CCN(Cc2cccnc2)CC1` [1-109, N-methyl-N-(1-(pyridin-3-ylmethyl)piperidin-4-yl)-5-(1-(4-(trifluoromethyl)phenyl)piperidin-4-yloxy)benzofuran-2-carboxamide] had an EC50 of less than 0.1 µM.

The compound `O=C(N[C@@H]1CCNC1)c1cc2cc(OC3CCN(c4ccc(C(F)(F)F)cc4)CC3)ccc2o1` [1-121, (R)-N-(pyrrolidin-3-yl)-5-(1-(4-(trifluoromethyl)phenyl)piperidin-4-yloxy)benzofuran-2-carboxamide] had an EC50 of more than 10 µM.

As to `N#Cc1ccccc1CN1CCC(NC(=O)c2cc3ccc(OC4CCN(c5ccc(C(F)(F)F)cc5)CC4)cc3o2)CC1` [1-98, N-(1-(2-cyanobenzyl)piperidin-4-yl)-6-(1-(4-(trifluoromethyl)phenyl)piperidin-4-yloxy)benzofuran-2-carboxamide], the EC50 was less than 0.1 µM.

With `O=C(NCCCNCc1ccncc1)c1ccc(OC2CCN(c3ccc(C(F)(F)F)cc3)CC2)cn1` [1-50, N-(3-(pyridin-4-ylmethylamino)propyl)-5-(1-(4-(trifluoromethyl)phenyl)piperidin-4-yloxy)picolinamide], the EC50 lay in the range of 1 to 5 µM.

As to `O=C(NC1CCN(Cc2ccncc2)CC1)c1sc2cc(OC3CCN(c4ccc(C(F)(F)F)cc4)CC3)ccc2c1Cl` [1-151, 3-chloro-N-(1-(pyridin-4-ylmethyl)piperidin-4-yl)-6-(1-(4-(trifluoromethyl)phenyl)piperidin-4-yloxy)benzo[b]thiophene-2-carboxamide], the 50% effective concentration (EC50) is less than 0.1 µM.

The compound `Cc1c(C(=O)NC2CCN(Cc3ccccc3C#N)CC2)oc2cc(OC3CCN(c4ccc(C(F)(F)F)cc4)CC3)ccc12` [1-67, N-(1-(2-cyanobenzyl)piperidin-4-yl)-3-methyl-6-(1-(4-(trifluoromethyl)phenyl)piperidin-4-yloxy)benzofuran-2-carboxamide] gave a 50% effective concentration (EC50) of less than 0.1 µM.

Compound `O=C(NC1CCN(Cc2ccncc2)CC1)c1ccc(OC2CCN(c3ccc(C(F)(F)F)cc3)CC2)cn1` [1-3, N-(1-(pyridin-4-ylmethyl)piperidin-4-yl)-5-(1-(4-(trifluoromethyl)phenyl)piperidin-4-yloxy)picolinamide] displayed a concentration for a half-maximal effect (EC50) of less than 0.1 µM.

Compound `O=C(NC1CCN(Cc2cccnc2)CC1)c1cncc(OC2CCN(c3ccc(C(F)(F)F)cc3)CC2)c1` [1-18, N-(1-(pyridin-3-ylmethyl)piperidin-4-yl)-5-(1-(4-(trifluoromethyl)phenyl)piperidin-4-yloxy)nicotinamide] returned a 50% effective concentration (EC50) of less than 0.1 µM.

In turn, `CN(C(=O)c1cc2cc(OC3CCN(c4ccc(C(F)(F)F)cc4)CC3)ccc2o1)C1CCN(Cc2ccc(C#N)cc2)CC1` [1-107, N-(1-(4-cyanobenzyl)piperidin-4-yl)-N-methyl-5-(1-(4-(trifluoromethyl)phenyl)piperidin-4-yloxy)benzofuran-2-carboxamide] gave an EC50 of less than 0.1 µM.

On to `CC(C)(C)OC(=O)N1CCC(NC(=O)c2cc3cc(OC4CCN(c5ccc(C(F)(F)F)cc5)CC4)ccc3o2)CC1` [1-85, tert-butyl 4-(5-(1-(4-(trifluoromethyl)phenyl)piperidin-4-yloxy)benzofuran-2-carboxamido)piperidine-1-carboxylate], for which the concentration giving a half-maximal response (EC50) is 0.5 to 1 µM.

Turning to `N#Cc1cccc(CN2CCC(NC(=O)c3cc4ccc(OC5CCN(c6ccc(C(F)(F)F)cc6)CC5)cc4s3)CC2)c1` [1-145, N-(1-(3-cyanobenzyl)piperidin-4-yl)-6-(1-(4-(trifluoromethyl)phenyl)piperidin-4-yloxy)benzo[b]thiophene-2-carboxamide], the EC50 fell in the range of 0.1 to 0.5 µM.

On to `CC(C)(C)OC(=O)N1CC[C@H](NC(=O)c2cc3cc(OC4CCN(Cc5ccc(Cl)cc5)CC4)ccc3o2)C1` [1-127, (S)-tert-butyl 3-(5-(1-(4-chlorobenzyl)piperidin-4-yloxy)benzofuran-2-carboxamido)pyrrolidine-1-carboxylate], for which the EC50 fell in the range of 1 to 5 µM.

In turn, `O=C(NC1CCN(Cc2ccncc2)CC1)c1cc2ccc(OC3CCN(c4ccc(C(F)(F)F)cc4)CC3)cc2o1` [1-87, N-(1-(pyridin-4-ylmethyl)piperidin-4-yl)-6-(1-(4-(trifluoromethyl)phenyl)piperidin-4-yloxy)benzofuran-2-carboxamide] had an EC50 of less than 0.1 µM.

On to `O=C(NC1CCN(Cc2ccccc2)CC1)c1cc2cc(OC3CCN(Cc4cccc(C(F)(F)F)c4)CC3)ccc2o1` [1-73, N-(1-benzylpiperidin-4-yl)-5-(1-(3-(trifluoromethyl)benzyl)piperidin-4-yloxy)benzofuran-2-carboxamide], for which the EC50 was 0.5 to 1 µM.

The same experiment, now with this note: compounds of Table 2 (Table 7).
The compound `O=C(NC1CCN(Cc2cccnc2)CC1)c1ccc2[nH]c3c(c2c1)CN(Cc1ccc(C(F)(F)F)cc1)CC3` [2-11, N-(1-(pyridin-3-ylmethyl)piperidin-4-yl)-2-(4-(trifluoromethyl)benzyl)-2,3,4,5-tetrahydro-1H-pyrido [4,3-b]indole-8-carboxamide] gave an EC50 of less than 0.5 µM.

`O=C(NC1CCN(CCc2ccccc2)CC1)c1ccc2[nH]c3c(c2c1)CN(Cc1ccc(C(F)(F)F)cc1)CC3` [2-14, N-(1-phenethyl-piperidin-4-yl)-2-(4-(trifluoromethyl)benzyl)-2,3,4,5-tetrahydro-1H-pyrido[4,3-b]indole-8-carboxamide] came in with a half-maximal effective concentration (EC50) of less than 0.5 µM.

As to `O=C(NC1CCN(Cc2ccncc2)CC1)c1ccc2[nH]c3c(c2c1)CN(Cc1ccc(C(F)(F)F)cc1)CC3` [2-50, N-(1-(pyridin-4-ylmethyl)piperidin-4-yl)-2-(4-(trifluoromethyl)benzyl)-2,3,4,5-tetrahydro-1H-pyrido[4,3-b]indole-8-carboxamide], the concentration for a half-maximal effect (EC50) is less than 0.5 µM.

Turning to `N#Cc1ccc(CN2CCC(NC(=O)c3ccc4[nH]c5c(c4c3)CN(S(=O)(=O)c3ccc(C#N)cc3)CC5)CC2)cc1` [2-25, N-(1-(4-cyanobenzyl)piperidin-4-yl)-2-(4-cyanophenylsulfonyl)-2,3,4,5-tetrahydro-1H-pyrido[4,3-b] indole-8-carboxamide], the EC50 was in the range of 10 to 50 µM.

`O=C(NC1CCN(Cc2ccc(C(F)(F)F)cc2)CC1)c1ccc2[nH]c3c(c2c1)CN(c1ccc(F)cc1)CC3` [2-37, 2-(4-fluorophenyl)-N-(1-(4-(trifluoromethyl)benzyl)piperidin-4-yl)-2,3,4,5-tetrahydro-1H-pyrido[4,3-b]indole-8-carboxamide] came in with an EC50 of 5 to 10 µM.

`CC(C)(C)OC(=O)N1CCC(NC(=O)c2ccc3[nH]c4c(c3c2)CN(Cc2ccc(C(N)=O)cc2)CC4)CC1` [2-43, tert-butyl 4-(2-(4-carbamoylbenzyl)-2,3,4,5-tetrahydro-1H-pyrido[4,3-b]indole-8-carboxamido) piperidine-1-carboxylate] registered a half-maximal effective concentration (EC50) of more than 100 µM.

In turn, `N#Cc1ccc(CN2CCC(NC(=O)c3ccc4[nH]c5c(c4c3)CN(S(=O)(=O)c3ccc(C(F)(F)F)cc3)CC5)CC2)cc1` [2-24, N-(1-(4-cyanobenzyl)piperidin-4-yl)-2-(4-(trifluoromethyl)phenylsulfonyl)-2,3,4,5-tetrahydro-1H-pyrido [4,3-b]indole-8-carboxamide] yielded a 50% effective concentration (EC50) of 1 to 5 µM.

The experiment is the same for the next values; noted with them: compounds of Table 3 (Table 8).
Turning to `N#Cc1ccc(C(=O)N2CCC(NC(=O)c3nc4ccc(OC5CCN(c6ccc(C(F)(F)F)cc6)CC5)cc4o3)CC2)cc1` [3-6, N-(1-(4-cyanobenzoyl)piperidin-4-yl)-6-(1-(4-(trifluoromethyl)phenyl)piperidin-4-yloxy)benzo[d]oxazole-2-carboxamide], the EC50 is less than 0.1 µM.

As to `N#Cc1ccc(CN2CCc3ccc(C(=O)NC4CCN(Cc5ccc(C(F)(F)F)cc5)CC4)cc3C2)cc1` [3-39, 2-(4-cyanobenzyl)-N-(1-(4-(trifluoromethyl)benzyl)piperidin-4-yl)-1,2,3,4-tetrahydroisoquinoline-7-carboxamide], the 50% effective concentration (EC50) is 1 to 10 µM.

In turn, `N#Cc1ccc(CN2CCC(NC(=O)c3cnc(OC4CCN(c5ccc(C(F)(F)F)cc5)CC4)s3)CC2)cc1` [3-23, N-(1-(4-cyanobenzyl)piperidin-4-yl)-2-(1-(4-(trifluoromethyl)phenyl)piperidin-4-yloxy)thiazole-5-carboxamide] showed an EC50 of less than 0.1 µM.

Compound `N#Cc1ccc(CN2CCC(NC(=O)c3ccc(C(=O)N4CCN(c5ccc(C(F)(F)F)cn5)CC4)cc3)CC2)cc1` [3-30, N-(1-(4-cyanobenzyl)piperidin-4-yl)-4-(4-(5-(trifluoromethyl)pyridin-2-yl)piperazine-1-carbonyl)benzamide] showed an EC50 of less than 0.1 µM.

Compound `O=C(c1ccc(F)cc1)N1CC2CC1CN2C(=O)c1nc2ccc(OC3CCN(c4ccc(C(F)(F)F)cc4)CC3)cc2o1` (stereo not shown) [3-13, (5-(4-fluorobenzoyl)-2,5-diazabicyclo[2.2.1]heptan-2-yl)(6-(1-(4-(trifluoromethyl)phenyl)piperidin-4-yloxy)benzo[d]oxazol-2-yl)methanone] gave an EC50 of less than 0.1 µM.

Still in this experiment, the particulars now being: compounds of Table 5 (Table 10).
Compound `CC(c1ccccc1)N1CCC(Oc2ccc(C(=O)NC3CCN(Cc4ccccc4)CC3)cc2F)CC1` (stereo not shown) [5-21, N-(1-benzylpiperidin-4-yl)-3-fluoro-4-(1-(1-phenylethyl)piperidin-4-yloxy)benzamide] gave an EC50 of 1 to 10 µM.

The compound `N#Cc1ccc(N2CCC(Oc3ccc(C(=O)NC4CCN(Cc5ccncc5)CC4)cc3F)CC2)cc1` [5-44, 4-(1-(4-cyanophenyl)piperidin-4-yloxy)-3-fluoro-N-(1-(pyridin-4-ylmethyl)piperidin-4-yl)benzamide] displayed an EC50 of less than 1 µM.

As for `CC(C)(C)c1ccc(CN2CCC(Oc3ccc(C(=O)NC4CCN(Cc5ccccc5)CC4)cc3F)CC2)cc1` [5-20, N-(1-benzylpiperidin-4-yl)-3-fluoro-4-(1-(4-tert-butylbenzyl)piperidin-4-yloxy)benzamide], the EC50 was less than 1 µM.

Consider `O=C(NC1CCN(Cc2ccncc2)CC1)c1ccc(OC2CCN(c3ccc(C(F)(F)F)cc3)CC2)c(F)c1` [5-28, 3-fluoro-N-(1-(pyridin-4-ylmethyl)piperidin-4-yl)-4-(1-(4-(trifluoromethyl)phenyl)piperidin-4-yloxy)benzamide], for which the 50% effective concentration (EC50) was less than 1 µM.
